The text below walks through data of ChEMBL document CHEMBL3991601, “The target landscape of clinical kinase drugs” (Science, 2017).

Assay [1] deals with Tyrosine-protein kinase ABL2 (Homo sapiens, UniProt P42684).
Assay [2] has as its target T1, Adenine phosphoribosyltransferase (Homo sapiens, UniProt P07741).
T1 sequence (P07741 whole entry): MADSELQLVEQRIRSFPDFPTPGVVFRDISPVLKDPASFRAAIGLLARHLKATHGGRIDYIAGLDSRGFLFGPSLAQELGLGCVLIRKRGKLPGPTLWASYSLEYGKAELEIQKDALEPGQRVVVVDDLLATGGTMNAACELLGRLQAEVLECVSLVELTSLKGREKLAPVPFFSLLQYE

In assay [3] the target is Calcium/calmodulin-dependent protein kinase kinase 2 (Homo sapiens, UniProt Q96RR4).
Calcium/calmodulin-dependent protein kinase kinase 2, sequence (Q96RR4 whole entry): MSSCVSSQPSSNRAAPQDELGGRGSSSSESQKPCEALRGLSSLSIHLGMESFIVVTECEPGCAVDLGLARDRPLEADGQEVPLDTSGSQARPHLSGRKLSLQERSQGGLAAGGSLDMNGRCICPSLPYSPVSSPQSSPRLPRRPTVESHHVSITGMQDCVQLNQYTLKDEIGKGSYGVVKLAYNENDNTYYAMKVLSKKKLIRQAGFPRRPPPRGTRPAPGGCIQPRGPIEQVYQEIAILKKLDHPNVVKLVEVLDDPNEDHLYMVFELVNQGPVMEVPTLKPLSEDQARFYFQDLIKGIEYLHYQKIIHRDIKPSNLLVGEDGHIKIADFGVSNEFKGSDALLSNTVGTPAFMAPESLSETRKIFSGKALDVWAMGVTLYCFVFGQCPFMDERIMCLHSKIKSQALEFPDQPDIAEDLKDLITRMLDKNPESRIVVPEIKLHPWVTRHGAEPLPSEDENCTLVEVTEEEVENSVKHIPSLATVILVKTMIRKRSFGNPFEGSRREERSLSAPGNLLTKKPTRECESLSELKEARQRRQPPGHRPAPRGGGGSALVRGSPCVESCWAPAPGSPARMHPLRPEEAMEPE
Assay [4] deals with Tyrosine-protein kinase CSK (Homo sapiens, UniProt P41240).
Tyrosine-protein kinase CSK, sequence (P41240 whole entry): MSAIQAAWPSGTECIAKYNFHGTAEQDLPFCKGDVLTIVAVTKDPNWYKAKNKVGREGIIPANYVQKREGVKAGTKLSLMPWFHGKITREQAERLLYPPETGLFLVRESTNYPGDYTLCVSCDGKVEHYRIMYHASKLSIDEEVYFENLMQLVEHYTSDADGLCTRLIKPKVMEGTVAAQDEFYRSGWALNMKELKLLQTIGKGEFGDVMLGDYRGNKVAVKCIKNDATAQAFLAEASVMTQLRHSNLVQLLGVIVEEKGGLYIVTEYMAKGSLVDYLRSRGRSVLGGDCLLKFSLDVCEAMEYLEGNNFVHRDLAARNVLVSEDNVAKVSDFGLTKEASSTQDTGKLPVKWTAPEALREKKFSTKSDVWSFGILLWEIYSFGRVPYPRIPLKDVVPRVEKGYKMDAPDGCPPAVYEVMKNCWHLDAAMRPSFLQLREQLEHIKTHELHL
Assay [5] concerns the target T2, Delta(24)-sterol reductase (Homo sapiens, UniProt Q15392).
T2 sequence (Q15392 whole entry): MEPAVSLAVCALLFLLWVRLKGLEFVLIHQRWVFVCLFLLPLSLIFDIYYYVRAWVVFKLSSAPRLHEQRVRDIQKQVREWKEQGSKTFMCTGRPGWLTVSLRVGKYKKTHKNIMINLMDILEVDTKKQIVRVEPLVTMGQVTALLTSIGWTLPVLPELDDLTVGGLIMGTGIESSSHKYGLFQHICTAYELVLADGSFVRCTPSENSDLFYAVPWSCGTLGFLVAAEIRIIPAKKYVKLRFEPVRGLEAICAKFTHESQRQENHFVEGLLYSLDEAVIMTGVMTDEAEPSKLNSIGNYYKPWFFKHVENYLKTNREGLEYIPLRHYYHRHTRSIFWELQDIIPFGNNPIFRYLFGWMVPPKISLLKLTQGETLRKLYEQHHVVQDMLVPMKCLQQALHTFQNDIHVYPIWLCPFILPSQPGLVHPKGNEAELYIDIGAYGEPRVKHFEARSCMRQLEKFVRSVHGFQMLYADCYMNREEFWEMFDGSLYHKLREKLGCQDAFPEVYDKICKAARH

Assay [6] deals with Mitogen-activated protein kinase 9 (Homo sapiens, UniProt P45984).
Mitogen-activated protein kinase 9, sequence (P45984 whole entry): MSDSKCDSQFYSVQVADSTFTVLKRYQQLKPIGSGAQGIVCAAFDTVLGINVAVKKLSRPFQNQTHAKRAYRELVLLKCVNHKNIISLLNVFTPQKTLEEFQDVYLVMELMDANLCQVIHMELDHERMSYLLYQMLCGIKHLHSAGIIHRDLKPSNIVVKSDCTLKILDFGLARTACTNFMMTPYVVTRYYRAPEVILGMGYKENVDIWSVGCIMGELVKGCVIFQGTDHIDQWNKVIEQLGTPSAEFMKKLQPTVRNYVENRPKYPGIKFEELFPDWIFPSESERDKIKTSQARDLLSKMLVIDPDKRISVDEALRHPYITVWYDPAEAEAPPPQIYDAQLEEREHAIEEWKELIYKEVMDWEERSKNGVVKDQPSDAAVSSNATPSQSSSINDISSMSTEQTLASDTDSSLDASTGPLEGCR
Assay [7] concerns the target T3, ATP-dependent 6-phosphofructokinase, platelet type (Homo sapiens, UniProt Q01813).
T3 sequence (Q01813 whole entry): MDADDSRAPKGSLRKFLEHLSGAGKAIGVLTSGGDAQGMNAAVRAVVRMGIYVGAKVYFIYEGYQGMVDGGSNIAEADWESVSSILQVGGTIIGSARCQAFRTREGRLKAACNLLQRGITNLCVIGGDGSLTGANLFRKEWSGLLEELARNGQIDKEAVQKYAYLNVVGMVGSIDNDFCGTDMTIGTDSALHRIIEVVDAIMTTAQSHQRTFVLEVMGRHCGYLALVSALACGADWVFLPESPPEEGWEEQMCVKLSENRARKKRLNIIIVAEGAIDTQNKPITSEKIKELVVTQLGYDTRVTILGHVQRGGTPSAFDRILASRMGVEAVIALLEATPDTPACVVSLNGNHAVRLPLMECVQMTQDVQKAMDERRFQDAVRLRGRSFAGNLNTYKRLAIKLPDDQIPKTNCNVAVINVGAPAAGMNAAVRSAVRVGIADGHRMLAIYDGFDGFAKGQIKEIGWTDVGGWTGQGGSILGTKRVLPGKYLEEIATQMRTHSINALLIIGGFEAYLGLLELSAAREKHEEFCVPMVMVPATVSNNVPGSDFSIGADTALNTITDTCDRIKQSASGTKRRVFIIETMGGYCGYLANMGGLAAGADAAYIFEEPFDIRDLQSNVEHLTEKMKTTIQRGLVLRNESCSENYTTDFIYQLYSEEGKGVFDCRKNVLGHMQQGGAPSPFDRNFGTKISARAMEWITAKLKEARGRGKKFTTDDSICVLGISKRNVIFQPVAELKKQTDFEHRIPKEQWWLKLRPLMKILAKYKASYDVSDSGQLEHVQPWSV

Assay [8] concerns the target Protein kinase C theta type (Homo sapiens, UniProt Q04759).
Assay [9] has as its target T4, Succinate--CoA ligase [ADP-forming] subunit beta, mitochondrial (Homo sapiens, UniProt Q9P2R7).
T4 sequence (Q9P2R7 whole entry): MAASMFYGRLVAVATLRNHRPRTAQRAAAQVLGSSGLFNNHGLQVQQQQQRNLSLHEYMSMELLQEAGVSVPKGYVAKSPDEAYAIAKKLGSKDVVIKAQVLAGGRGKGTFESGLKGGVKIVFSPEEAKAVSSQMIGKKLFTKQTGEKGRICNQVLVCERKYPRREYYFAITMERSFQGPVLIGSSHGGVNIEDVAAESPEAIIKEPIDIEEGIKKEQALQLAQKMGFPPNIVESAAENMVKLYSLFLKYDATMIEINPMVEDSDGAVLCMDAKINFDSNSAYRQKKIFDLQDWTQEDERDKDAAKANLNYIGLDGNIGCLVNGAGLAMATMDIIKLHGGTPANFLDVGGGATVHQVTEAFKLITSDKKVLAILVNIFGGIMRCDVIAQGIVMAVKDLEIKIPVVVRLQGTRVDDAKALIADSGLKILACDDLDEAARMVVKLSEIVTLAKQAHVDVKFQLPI

Assay [10] concerns the target Tyrosine-protein kinase SYK (Homo sapiens, UniProt P43405).
A further assay has as its target Wee1-like protein kinase (Homo sapiens, UniProt P30291).
In assay [11] the target is T5, Uncharacterized protein FLJ45252 (Homo sapiens, UniProt Q6ZSR9).
T5 sequence (Q6ZSR9 whole entry): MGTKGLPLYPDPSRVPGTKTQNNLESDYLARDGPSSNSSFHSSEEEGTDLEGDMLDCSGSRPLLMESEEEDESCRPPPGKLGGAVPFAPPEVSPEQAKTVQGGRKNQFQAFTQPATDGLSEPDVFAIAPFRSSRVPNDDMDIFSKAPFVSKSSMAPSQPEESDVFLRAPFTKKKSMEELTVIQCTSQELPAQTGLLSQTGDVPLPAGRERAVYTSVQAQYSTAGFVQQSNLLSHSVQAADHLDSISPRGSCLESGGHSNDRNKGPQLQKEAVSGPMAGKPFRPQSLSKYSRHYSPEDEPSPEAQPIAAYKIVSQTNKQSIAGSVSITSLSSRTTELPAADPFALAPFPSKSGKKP
Particulars: read-out: Kd apparent; k-562, colo 205, sk-n-be(2) and mv-4-11.

SMILES strings stand for the structures. The source made the active and inactive calls. Rule as the data show it, for most assays here: actives have a measured Kd and inactives only a lower limit. Bounds are passed on as bounds.
Also: in the data inactive means no Kd found up to 30 µM.

Protein kinase C theta type, sequence (Q04759 whole entry): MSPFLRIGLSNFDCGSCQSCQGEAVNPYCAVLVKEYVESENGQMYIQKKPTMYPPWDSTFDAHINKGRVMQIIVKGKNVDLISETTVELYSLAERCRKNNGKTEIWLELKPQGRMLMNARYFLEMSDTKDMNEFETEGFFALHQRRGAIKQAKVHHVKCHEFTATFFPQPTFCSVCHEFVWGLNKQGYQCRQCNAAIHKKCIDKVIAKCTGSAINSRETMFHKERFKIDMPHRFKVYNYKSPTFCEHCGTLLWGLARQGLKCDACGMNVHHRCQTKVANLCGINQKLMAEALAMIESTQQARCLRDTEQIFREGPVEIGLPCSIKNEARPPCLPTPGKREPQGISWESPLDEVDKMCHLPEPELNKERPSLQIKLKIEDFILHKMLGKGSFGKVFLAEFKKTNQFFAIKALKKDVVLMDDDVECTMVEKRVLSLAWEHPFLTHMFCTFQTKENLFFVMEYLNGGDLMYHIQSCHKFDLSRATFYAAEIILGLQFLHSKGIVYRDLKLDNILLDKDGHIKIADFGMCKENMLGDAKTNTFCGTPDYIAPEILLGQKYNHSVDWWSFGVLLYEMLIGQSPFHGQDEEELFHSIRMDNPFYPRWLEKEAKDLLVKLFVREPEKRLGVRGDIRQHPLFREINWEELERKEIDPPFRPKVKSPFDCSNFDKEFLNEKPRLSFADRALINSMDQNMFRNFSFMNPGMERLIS
Tyrosine-protein kinase ABL2, sequence (P42684 whole entry): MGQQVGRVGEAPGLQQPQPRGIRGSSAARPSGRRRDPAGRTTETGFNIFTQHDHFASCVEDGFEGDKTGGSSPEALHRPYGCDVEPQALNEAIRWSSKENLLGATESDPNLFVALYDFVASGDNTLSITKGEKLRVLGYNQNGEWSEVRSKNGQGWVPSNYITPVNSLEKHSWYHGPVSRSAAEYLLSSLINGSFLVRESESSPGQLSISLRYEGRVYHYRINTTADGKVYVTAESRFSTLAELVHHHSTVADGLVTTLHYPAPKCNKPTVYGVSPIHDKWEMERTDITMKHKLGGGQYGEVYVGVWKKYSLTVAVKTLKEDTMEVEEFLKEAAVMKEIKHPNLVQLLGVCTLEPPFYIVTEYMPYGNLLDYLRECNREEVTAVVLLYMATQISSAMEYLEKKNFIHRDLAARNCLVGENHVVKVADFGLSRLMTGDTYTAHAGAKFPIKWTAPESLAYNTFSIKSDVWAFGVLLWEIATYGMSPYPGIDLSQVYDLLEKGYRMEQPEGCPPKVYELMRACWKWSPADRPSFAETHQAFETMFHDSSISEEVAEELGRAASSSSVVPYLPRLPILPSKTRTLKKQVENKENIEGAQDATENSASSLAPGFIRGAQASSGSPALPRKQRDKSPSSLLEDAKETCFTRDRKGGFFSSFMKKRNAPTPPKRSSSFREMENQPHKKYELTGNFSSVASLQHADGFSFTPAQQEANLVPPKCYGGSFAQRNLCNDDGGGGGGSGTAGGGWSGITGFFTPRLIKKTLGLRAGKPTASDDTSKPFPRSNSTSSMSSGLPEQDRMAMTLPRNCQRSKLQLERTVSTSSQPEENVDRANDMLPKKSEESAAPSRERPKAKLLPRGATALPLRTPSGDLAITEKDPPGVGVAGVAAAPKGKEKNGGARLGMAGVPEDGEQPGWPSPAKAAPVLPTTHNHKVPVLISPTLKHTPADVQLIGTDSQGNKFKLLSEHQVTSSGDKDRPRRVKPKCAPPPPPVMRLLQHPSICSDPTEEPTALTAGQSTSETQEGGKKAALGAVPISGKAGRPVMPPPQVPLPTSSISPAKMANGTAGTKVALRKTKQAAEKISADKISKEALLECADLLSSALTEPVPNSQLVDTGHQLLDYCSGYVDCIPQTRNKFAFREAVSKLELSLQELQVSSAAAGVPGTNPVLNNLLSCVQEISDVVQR
Wee1-like protein kinase, sequence (P30291 whole entry): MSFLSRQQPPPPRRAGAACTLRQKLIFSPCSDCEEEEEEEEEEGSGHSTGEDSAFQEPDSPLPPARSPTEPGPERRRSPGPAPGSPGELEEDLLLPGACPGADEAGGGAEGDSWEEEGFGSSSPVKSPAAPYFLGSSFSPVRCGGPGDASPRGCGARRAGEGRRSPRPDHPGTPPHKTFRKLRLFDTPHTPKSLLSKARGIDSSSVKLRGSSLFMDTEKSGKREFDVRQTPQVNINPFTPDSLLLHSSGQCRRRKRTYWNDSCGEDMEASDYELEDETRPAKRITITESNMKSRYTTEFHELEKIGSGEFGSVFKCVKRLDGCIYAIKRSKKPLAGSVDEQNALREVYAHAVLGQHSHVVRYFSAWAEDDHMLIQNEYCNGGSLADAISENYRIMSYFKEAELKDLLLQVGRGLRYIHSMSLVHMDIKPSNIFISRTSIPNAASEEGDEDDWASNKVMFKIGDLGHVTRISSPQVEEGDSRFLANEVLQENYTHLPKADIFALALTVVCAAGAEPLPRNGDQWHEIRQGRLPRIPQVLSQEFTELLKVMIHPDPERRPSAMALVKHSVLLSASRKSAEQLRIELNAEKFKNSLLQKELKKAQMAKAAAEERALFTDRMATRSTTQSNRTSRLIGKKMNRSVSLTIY

Consider `CCCCCCCCCCCCCCCCCCOP(=O)([O-])OC1CC[N+](C)(C)CC1` [PERIFOSINE], for which the Kd in assay [1], in [2], in assay [3], in [4], in [5] and in [6] was > 30 µM (inactive) each time. Besides, the Kd (in assay [7]; in assay [8]; in assay [9]; in assay [10]; on Wee1-like protein kinase; in assay [11]) was > 30 µM (inactive) in each case.

Regarding `Cc1nc(Nc2n[nH]c3c2CN(C(=O)N[C@H](CN(C)C)c2ccccc2)C3(C)C)c2sccc2n1` [PF-03758309], the Kd in [1] was 0.939 µM (active); in assay [2] it was > 30 µM (inactive); in [3], 2.86 µM (active); in assay [4], > 30 µM (inactive); in assay [5], > 30 µM (inactive); in assay [6] it was > 30 µM (inactive). For the same molecule, the Kd is > 30 µM (inactive) in assay [7]; 0.085 µM (active) in assay [8]; > 30 µM (inactive) in [9]; > 30 µM (inactive) in [10]; 2.77 µM (active) at Wee1-like protein kinase; 2.72 µM (active) in assay [11].

`N#CC1(c2ccc(NC(=O)c3cccnc3NCc3ccncc3)cc2)CCCC1` [RIVOCERANIB]: the Kd in assay [1], in assay [2], in assay [3], in [4], in assay [5] and in assay [6] was > 30 µM (inactive) each time. The Kd (in [7]; in assay [8]; in assay [9]; in assay [10]; at Wee1-like protein kinase; in assay [11]) was > 30 µM (inactive) in each case.

On to `O=c1[nH]ccc2cc(OC3CCNCC3)ccc12` [SAR-407899 FREE BASE], for which the Kd in assay [1], in assay [2], in [3], in [4], in assay [5] and in assay [6] was > 30 µM (inactive) throughout. For the same molecule, the Kd in [7] was > 30 µM (inactive); in assay [8], > 30 µM (inactive); in [9], > 30 µM (inactive); in assay [10], > 30 µM (inactive); at Wee1-like protein kinase it was > 30 µM (inactive); in assay [11], 0.013 µM (active).

Turning to `CO[C@H]1C[C@@H]2CC[C@@H](C)[C@@](O)(O2)C(=O)C(=O)N2CCCC[C@H]2C(=O)O[C@H]([C@H](C)C[C@@H]2CC[C@@H](O)[C@H](OC)C2)CC(=O)[C@H](C)/C=C(\C)[C@@H](O)[C@@H](OC)C(=O)[C@H](C)C[C@H](C)/C=C/C=C/C=C/1C` [SIROLIMUS], the Kd in [1], in assay [2], in [3], in assay [4], in assay [5] and in assay [6] was > 30 µM (inactive) each time. In addition, the Kd (in [7]; in assay [8]; in [9]; in [10]; on Wee1-like protein kinase; in assay [11]) was > 30 µM (inactive) each time.

In the case of `CO[C@H]1C[C@@H]2CC[C@@H](C)[C@@](O)(O2)C(=O)C(=O)N2CCCC[C@H]2C(=O)O[C@H]([C@H](C)C[C@@H]2CC[C@@H](OC(=O)C(C)(CO)CO)[C@H](OC)C2)CC(=O)[C@H](C)/C=C(\C)[C@@H](O)[C@@H](OC)C(=O)[C@H](C)C[C@H](C)/C=C/C=C/C=C/1C` [TEMSIROLIMUS], the Kd in assay [1], in [2], in [3], in assay [4], in assay [5] and in [6] was > 30 µM (inactive) in each case. In addition, the Kd (in [7]; in [8]; in [9]; in assay [10]; at Wee1-like protein kinase; in [11]) was > 30 µM (inactive) each time.

On to `COc1cc2c(Nc3ccc(Cl)c(Cl)c3F)ncnc2cc1OC[C@@H]1C[C@@H]2CN(C)C[C@@H]2C1` [TESEVATINIB], for which the Kd is 0.628 µM (active) in assay [1]; > 30 µM (inactive) in assay [2]; > 30 µM (inactive) in assay [3]; > 30 µM (inactive) in assay [4]; > 30 µM (inactive) in assay [5]; > 30 µM (inactive) in assay [6]. The Kd (in assay [7]; in assay [8]; in [9]; in assay [10]; on Wee1-like protein kinase; in [11]) was > 30 µM (inactive) in each case.

For the molecule `O=C(Cc1ccc(-c2ccc(OCCN3CCOCC3)cc2)cn1)NCc1ccccc1` [TIRBANIBULIN], the Kd in [1], in [2], in assay [3], in assay [4], in assay [5] and in assay [6] was > 30 µM (inactive) in each case. Besides, the Kd (in [7]; in assay [8]; in assay [9]; in [10]; on Wee1-like protein kinase; in assay [11]) was > 30 µM (inactive) each time.
